Each structure is given as a SMILES string. Positions of bridges follow the written chain, without caps; N, C: chain ends. Non-standard residues stand in square brackets, D forms with d. Residues, ends and D or L forms follow the SMILES beside them. *: point of attachment. Trp(1-CH2COOH) = N[C@@H](Cc1cn(CC(=O)O)c2ccccc12)C(=O)O; NMePhe(3-Cl) = CN[C@@H](Cc1cccc(Cl)c1)C(=O)O; 3Pal(6-NH2) = Nc1ccc(C[C@H](N)C(=O)O)cn1; Lys(N3) = [N-]=[N+]=NCCCC[C@H](N)C(=O)O; NMeY = CN[C@@H](Cc1ccc(O)cc1)C(=O)O; 3Pal = N[C@@H](Cc1cccnc1)C(=O)O; 4Pal = N[C@@H](Cc1ccncc1)C(=O)O; Carboxymethyl = O=C(O)C* Bounds are passed on as bounds.

The target of this test is T1, human transferrin receptor (hTfR) (Homo sapiens, UniProt P02786).
T1 construct: made in house
T1 sequence (P02786 89-760 limits assumed): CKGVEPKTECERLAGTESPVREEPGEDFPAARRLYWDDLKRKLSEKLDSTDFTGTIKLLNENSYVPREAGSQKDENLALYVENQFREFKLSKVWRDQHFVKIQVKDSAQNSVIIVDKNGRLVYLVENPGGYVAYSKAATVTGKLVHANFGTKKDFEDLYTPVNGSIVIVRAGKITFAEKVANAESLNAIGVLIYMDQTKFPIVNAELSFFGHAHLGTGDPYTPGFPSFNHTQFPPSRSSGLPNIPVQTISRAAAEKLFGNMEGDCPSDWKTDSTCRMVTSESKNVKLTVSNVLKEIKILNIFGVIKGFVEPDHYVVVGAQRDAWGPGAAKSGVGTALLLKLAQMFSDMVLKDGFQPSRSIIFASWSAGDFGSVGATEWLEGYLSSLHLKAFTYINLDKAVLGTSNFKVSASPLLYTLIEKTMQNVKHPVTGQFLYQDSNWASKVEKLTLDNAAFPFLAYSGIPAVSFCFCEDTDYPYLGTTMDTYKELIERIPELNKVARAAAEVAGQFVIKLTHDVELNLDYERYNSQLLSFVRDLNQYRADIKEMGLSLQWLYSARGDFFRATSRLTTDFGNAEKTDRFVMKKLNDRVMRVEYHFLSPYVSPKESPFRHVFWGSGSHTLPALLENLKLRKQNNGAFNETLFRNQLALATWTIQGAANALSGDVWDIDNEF
Put plainly: Evaluation of molecular interaction between transferrin receptor (hTfR) and peptide using surface plasmon resonance (SPR). Particulars: KD class for binding to hTfR by SPR; peptide with the linker shown in the same line; 'low signal indicates no activity'; read-out: SPR. It is filed as binding. Summed up:
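KD values are derived by least-squares fitting of single-cycle kinetic sensorgrams. Peptide series (5–100 nM) flows over recombinant hTfR dimer immobilized on a Ni-NTA chip by EDC/NHS coupling, in pH 8.0 HEPES buffer containing 0.1% BSA and 1.0% DMSO.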
Consider `CC[C@H](C)[C@@H]1NC(=O)[C@H](Cc2ccc(OC)cc2)NC(=O)[C@H](Cc2ccc(O)cc2)NC(=O)[C@H](CC(N)=O)NC(=O)[C@H](Cc2c[nH]c3ccccc23)N(C)C(=O)[C@H](C(C)C)NC(=O)[C@H](Cc2cccc(Cl)c2)N(C)C(=O)[C@H](C(C)C)NC(=O)[C@H](C)NC(=O)CSC[C@@H](C(=O)NCC(=O)N[C@@H](CCCCN=[N+]=[N-])C(N)=O)NC(=O)[C@H](Cc2ccc(O)cc2)N(C)C(=O)[C@H](Cc2ccc(O)cc2)NC(=O)[C@H](CCCNC(=N)N)NC(=O)[C@H](CCCNC(=N)N)NC(=O)[C@H]([C@@H](C)CC)NC1=O` [894_3166], for which the Kd was 1 to 100 nM.

Take `CC[C@H](C)[C@@H]1NC(=O)[C@H](Cc2ccc(OCC(=O)O)cc2)NC(=O)[C@H](Cc2ccc(O)cc2)NC(=O)[C@H](CC(N)=O)NC(=O)[C@H](Cc2cn(CC(=O)O)c3ccccc23)NC(=O)[C@H](C(C)C)NC(=O)[C@H](Cc2cccc(Cl)c2)N(C)C(=O)[C@H](C(C)C)NC(=O)[C@H](C)NC(=O)CSC[C@@H](C(=O)NCC(=O)N[C@@H](CCCCN=[N+]=[N-])C(N)=O)NC(=O)[C@H](Cc2ccc(O)cc2)N(C)C(=O)[C@H](Cc2ccccc2)NC(=O)[C@H](CCCNC(=N)N)NC(=O)[C@H](CCCNC(=N)N)NC(=O)[C@H]([C@@H](C)CC)NC1=O` [894_3171]: the Kd fell in the range of 1 to 100 nM.

For the compound `CC[C@H](C)[C@@H]1NC(=O)[C@H](Cc2ccc(OCC(=O)O)cc2)NC(=O)[C@H](Cc2ccc(O)cc2)NC(=O)[C@H](CC(N)=O)NC(=O)[C@H](Cc2cn(CC(=O)O)c3ccccc23)NC(=O)[C@H](C(C)C)NC(=O)[C@H](Cc2cccc(Cl)c2)N(C)C(=O)[C@H](C(C)C)NC(=O)[C@H](C)NC(=O)CSC[C@@H](C(=O)NCC(=O)N[C@@H](CCCCN=[N+]=[N-])C(N)=O)NC(=O)[C@H](Cc2ccc(O)cc2)N(C)C(=O)[C@H](Cc2ccccc2)NC(=O)[C@H](CCCNC(=N)N)NC(=O)[C@H](CCC(=O)NCCOCCOCCOCCOCCOCCOCCOCCOC)NC(=O)[C@H]([C@@H](C)CC)NC1=O` [894_3172], the Kd lay in the range of 1 to 100 nM.

In the case of `CC[C@H](C)[C@@H]1NC(=O)[C@H](Cc2ccc(OCC(=O)O)cc2)NC(=O)[C@H](Cc2ccc(O)cc2)NC(=O)[C@H](CC(N)=O)NC(=O)[C@H](Cc2cn(CC(=O)O)c3ccccc23)NC(=O)[C@H](C(C)C)NC(=O)[C@H](Cc2cccc(Cl)c2)N(C)C(=O)[C@H](C(C)C)NC(=O)[C@H](C)NC(=O)CSC[C@@H](C(=O)NCC(=O)N[C@@H](CCCCN=[N+]=[N-])C(N)=O)NC(=O)[C@H](Cc2ccc(O)cc2)N(C)C(=O)[C@H](Cc2ccccc2)NC(=O)[C@H](CCC(=O)NCCOCCOCCOCCOCCOCCOCCOCCOC)NC(=O)[C@H](CCCNC(=N)N)NC(=O)[C@H]([C@@H](C)CC)NC1=O` [894_3173], the Kd lay in the range of 1 to 100 nM.

Turning to `CC[C@H](C)[C@@H]1NC(=O)[C@H](Cc2ccc(OCC(=O)O)cc2)NC(=O)[C@H](Cc2ccc(O)cc2)NC(=O)[C@H](CC(N)=O)NC(=O)[C@H](Cc2cn(CC(=O)O)c3ccccc23)NC(=O)[C@H](C(C)C)NC(=O)[C@H](Cc2cccc(Cl)c2)N(C)C(=O)[C@H](C(C)C)NC(=O)[C@H](C)NC(=O)CSC[C@@H](C(=O)NCC(=O)N[C@@H](CCCCN=[N+]=[N-])C(N)=O)NC(=O)[C@H](Cc2ccc(O)cc2)N(C)C(=O)[C@H](Cc2ccccc2)NC(=O)[C@H](CCCNC(=N)N)NC(=O)[C@H](CCC(N)=O)NC(=O)[C@H]([C@@H](C)CC)NC1=O` [894_3176], the Kd fell in the range of 1 to 100 nM.

Take `CC[C@H](C)[C@@H]1NC(=O)[C@H](Cc2ccc(OCC(=O)O)cc2)NC(=O)[C@H](Cc2ccc(O)cc2)NC(=O)[C@H](CC(N)=O)NC(=O)[C@H](Cc2cn(CC(=O)O)c3ccccc23)NC(=O)[C@H](C(C)C)NC(=O)[C@H](Cc2cccc(Cl)c2)N(C)C(=O)[C@H](C(C)C)NC(=O)[C@H](C)NC(=O)CSC[C@@H](C(=O)NCC(=O)N[C@@H](CCCCN=[N+]=[N-])C(N)=O)NC(=O)[C@H](Cc2ccc(O)cc2)N(C)C(=O)[C@H](Cc2ccccc2)NC(=O)[C@H](CCC(N)=O)NC(=O)[C@H](CCCNC(=N)N)NC(=O)[C@H]([C@@H](C)CC)NC1=O` [894_3177]: the Kd is 1 to 100 nM.

Turning to `CC[C@H](C)[C@@H]1NC(=O)[C@H](Cc2ccc(OCC(=O)O)cc2)NC(=O)[C@H](Cc2ccc(O)cc2)NC(=O)[C@H](CC(N)=O)NC(=O)[C@H](Cc2cn(CC(=O)O)c3ccccc23)NC(=O)[C@H](C(C)C)NC(=O)[C@H](Cc2cccc(Cl)c2)N(C)C(=O)[C@H](C(C)C)NC(=O)[C@H](C)NC(=O)CSC[C@@H](C(=O)NCC(=O)N[C@@H](CCCCN=[N+]=[N-])C(N)=O)NC(=O)[C@H](Cc2ccc(O)cc2)N(C)C(=O)[C@H](Cc2ccccc2)NC(=O)[C@H](CCC(N)=O)NC(=O)[C@H](CCC(N)=O)NC(=O)[C@H]([C@@H](C)CC)NC1=O` [894_3178] ({CH2CO}-AV[NMePhe(3-Cl)]V[Trp(1-CH2COOH)]NYY(Carboxymethyl)IIQQF[NMeY]CG[Lys(N3)]-NH2; thioether N-15), the Kd fell in the range of 1 to 100 nM.

Take `CC[C@H](C)[C@@H]1NC(=O)[C@H](Cc2cccnc2)NC(=O)[C@H](Cc2ccc(O)cc2)NC(=O)[C@H](CC(N)=O)NC(=O)[C@H](Cc2cn(CC(=O)O)c3ccccc23)NC(=O)[C@H](C(C)C)NC(=O)[C@H](Cc2cccc(Cl)c2)N(C)C(=O)[C@H](C(C)C)NC(=O)[C@H](C)NC(=O)CSC[C@@H](C(=O)NCC(=O)N[C@@H](CCCCN=[N+]=[N-])C(N)=O)NC(=O)[C@H](Cc2ccc(O)cc2)N(C)C(=O)[C@H](Cc2ccncc2)NC(=O)[C@H](CCCNC(=N)N)NC(=O)[C@H](CCCNC(=N)N)NC(=O)[C@H]([C@@H](C)CC)NC1=O` [894_3185] ({CH2CO}-AV[NMePhe(3-Cl)]V[Trp(1-CH2COOH)]NY[3Pal]IIRR[4Pal][NMeY]CG[Lys(N3)]-NH2; thioether N-15): the Kd is 1 to 100 nM.

Turning to `CC[C@H](C)[C@@H]1NC(=O)[C@H](Cc2cccnc2)NC(=O)[C@H](Cc2ccc(N)nc2)NC(=O)[C@H](CC(N)=O)NC(=O)[C@H](Cc2cn(CC(=O)O)c3ccccc23)NC(=O)[C@H](C(C)C)NC(=O)[C@H](Cc2cccc(Cl)c2)N(C)C(=O)[C@H](C(C)C)NC(=O)[C@H](C)NC(=O)CSC[C@@H](C(=O)NCC(=O)N[C@@H](CCCCN=[N+]=[N-])C(N)=O)NC(=O)[C@H](Cc2ccc(O)cc2)N(C)C(=O)[C@H](Cc2ccncc2)NC(=O)[C@H](CCCNC(=N)N)NC(=O)[C@H](CCCNC(=N)N)NC(=O)[C@H]([C@@H](C)CC)NC1=O` [894_3186] ({CH2CO}-AV[NMePhe(3-Cl)]V[Trp(1-CH2COOH)]N[3Pal(6-NH2)][3Pal]IIRR[4Pal][NMeY]CG[Lys(N3)]-NH2; thioether N-15), the Kd fell in the range of 1 to 100 nM.

As to `CC[C@H](C)[C@@H]1NC(=O)[C@H](Cc2ccc(OC)cc2)NC(=O)[C@H](Cc2ccc(N)nc2)NC(=O)[C@H](CC(N)=O)NC(=O)[C@H](Cc2cn(CC(=O)O)c3ccccc23)NC(=O)[C@H](C(C)C)NC(=O)[C@H](Cc2cccc(Cl)c2)N(C)C(=O)[C@H](C(C)C)NC(=O)[C@H](C)NC(=O)CSC[C@@H](C(=O)NCC(=O)N[C@@H](CCCCN=[N+]=[N-])C(N)=O)NC(=O)[C@H](Cc2ccc(O)cc2)N(C)C(=O)[C@H](Cc2ccncc2)NC(=O)[C@H](CCCNC(=N)N)NC(=O)[C@H](CCCNC(=N)N)NC(=O)[C@H]([C@@H](C)CC)NC1=O` [894_3187], the Kd is 1 to 100 nM.

For `CC[C@H](C)[C@@H]1NC(=O)[C@H](Cc2cccnc2)NC(=O)[C@H](Cc2ccc(O)cc2)NC(=O)[C@H](CC(N)=O)NC(=O)[C@H](Cc2c[nH]c3ccccc23)NC(=O)[C@H](C(C)C)NC(=O)[C@H](Cc2cccc(Cl)c2)N(C)C(=O)[C@H](C(C)C)NC(=O)[C@H](C)NC(=O)CSC[C@@H](C(=O)NCC(=O)N[C@@H](CCCCN=[N+]=[N-])C(N)=O)NC(=O)[C@H](Cc2ccc(O)cc2)N(C)C(=O)[C@H](Cc2ccncc2)NC(=O)[C@H](CCCNC(=N)N)NC(=O)[C@H](CCCNC(=N)N)NC(=O)[C@H]([C@@H](C)CC)NC1=O` [894_3188] ({CH2CO}-AV[NMePhe(3-Cl)]VWNY[3Pal]IIRR[4Pal][NMeY]CG[Lys(N3)]-NH2; thioether N-15), the Kd was 1 to 100 nM.

As for `CC[C@H](C)[C@@H]1NC(=O)[C@H](Cc2cccnc2)NC(=O)[C@H](Cc2ccc(N)nc2)NC(=O)[C@H](CC(N)=O)NC(=O)[C@H](Cc2c[nH]c3ccccc23)NC(=O)[C@H](C(C)C)NC(=O)[C@H](Cc2cccc(Cl)c2)N(C)C(=O)[C@H](C(C)C)NC(=O)[C@H](C)NC(=O)CSC[C@@H](C(=O)NCC(=O)N[C@@H](CCCCN=[N+]=[N-])C(N)=O)NC(=O)[C@H](Cc2ccc(O)cc2)N(C)C(=O)[C@H](Cc2ccncc2)NC(=O)[C@H](CCCNC(=N)N)NC(=O)[C@H](CCCNC(=N)N)NC(=O)[C@H]([C@@H](C)CC)NC1=O` [894_3189] ({CH2CO}-AV[NMePhe(3-Cl)]VWN[3Pal(6-NH2)][3Pal]IIRR[4Pal][NMeY]CG[Lys(N3)]-NH2; thioether N-15), the Kd fell in the range of 1 to 100 nM.

For `CC[C@H](C)[C@@H]1NC(=O)[C@H](Cc2ccc(OC)cc2)NC(=O)[C@H](Cc2ccc(N)nc2)NC(=O)[C@H](CC(N)=O)NC(=O)[C@H](Cc2c[nH]c3ccccc23)NC(=O)[C@H](C(C)C)NC(=O)[C@H](Cc2cccc(Cl)c2)N(C)C(=O)[C@H](C(C)C)NC(=O)[C@H](C)NC(=O)CSC[C@@H](C(=O)NCC(=O)N[C@@H](CCCCN=[N+]=[N-])C(N)=O)NC(=O)[C@H](Cc2ccc(O)cc2)N(C)C(=O)[C@H](Cc2ccncc2)NC(=O)[C@H](CCCNC(=N)N)NC(=O)[C@H](CCCNC(=N)N)NC(=O)[C@H]([C@@H](C)CC)NC1=O` [894_3190], the Kd lay within 1 to 100 nM.

`CC[C@H](C)[C@@H]1NC(=O)[C@H](Cc2ccc(OCC(=O)O)cc2)NC(=O)[C@H](Cc2ccc(O)cc2)NC(=O)[C@H](CC(N)=O)NC(=O)[C@H](Cc2cn(CC(=O)O)c3ccccc23)NC(=O)[C@H](C(C)C)NC(=O)[C@H](Cc2cccc(Cl)c2)N(C)C(=O)[C@H](C(C)C)NC(=O)[C@H](C)NC(=O)CSC[C@@H](C(=O)NCC(=O)N[C@H](CCC(=O)O)C(=O)N[C@H](CCC(=O)O)C(=O)N[C@H](CCC(=O)O)C(=O)N[C@H](CO)C(=O)N[C@H](CO)C(=O)N[C@@H](CCCCNC(=O)OC[C@@H]2[C@@H]3CCC#CCC[C@@H]32)C(N)=O)NC(=O)[C@H](Cc2ccc(O)cc2)N(C)C(=O)[C@H](Cc2ccccc2)NC(=O)[C@H](CCCNC(=N)N)NC(=O)[C@H](CCCNC(=N)N)NC(=O)[C@H]([C@@H](C)CC)NC1=O` [894_3197]: the Kd was below 1 nM.
